Reference: ChEMBL document CHEMBL4680273, “Teixobactin: A Paving Stone toward a New Class of Antibiotics?” (2020)
≈ marks a conversion by molar mass, not a printed value. Where a SMILES comes first, the peptide text is derived from it. Bridges are numbered along the chain shown (N, C = ends). [ ]: non-standard residue; d: D form. d(aIle) = CC[C@H](C)[C@@H](N)C(=O)O; dNMeF = CN[C@H](Cc1ccccc1)C(=O)O

Legend:
Assay type in all cases: functional
[1] = test system: Staphylococcus aureus; experiment: Antibacterial activity against Staphylococcus aureus ATCC 29213 incubated for 24 hrs by CLSI-based broth microdilution method
[2] = test system: Staphylococcus aureus; experiment: Antibacterial activity against Staphylococcus aureus ATCC 29213 by CLSI-based broth microdilution method
[3] = test system: Staphylococcus aureus; experiment: Antibacterial activity against Staphylococcus aureus ATCC 29213
[4] = test system: Staphylococcus aureus; experiment: Antibacterial activity against methicillin resistant Staphylococcus aureus
[5] = test system: Staphylococcus aureus; experiment: Antibacterial activity against methicillin resistant Staphylococcus aureus ATCC 33591 incubated for 24 hrs
[6] = test system: Bacillus subtilis; experiment: Antibacterial activity against Bacillus subtilis 168 incubated for 24 hrs
[7] = test system: Bacillus subtilis; experiment: Antibacterial activity against Bacillus subtilis ATCC 6051 incubated for 16 hrs by UV/Visible absorbance method
[8] = test system: Staphylococcus aureus; experiment: Antibacterial activity against Staphylococcus aureus ATCC 29213 incubated for 16 hrs by UV/Visible absorbance method

CC[C@H](C)[C@H](NC(=O)[C@@H](N)Cc1ccccc1)C(=O)N[C@@H](CO)C(=O)N[C@H](CCC(N)=O)C(=O)N[C@@H](C(=O)N[C@H](C(=O)N[C@@H](CO)C(=O)N[C@H]1C(=O)N[C@@H](C)C(=O)N[C@@H](CCCNC(=N)N)C(=O)N[C@@H]([C@@H](C)CC)C(=O)O[C@H]1C)[C@@H](C)CC)[C@@H](C)CC
MIC [1]: 2 µg/mL (≈ 1.63 µM)

CC[C@H](C)[C@H](NC(=O)[C@H](N)Cc1ccccc1)C(=O)N[C@@H](CO)C(=O)N[C@H](CCC(N)=O)C(=O)N[C@@H](C(=O)N[C@H](C(=O)N[C@@H](CO)C(=O)N[C@H]1C(=O)N[C@@H](C)C(=O)N[C@@H](CCCNC(=N)N)C(=O)N[C@@H]([C@@H](C)CC)C(=O)O[C@H]1C)[C@@H](C)CC)[C@@H](C)CC
MIC [2]: 2 µg/mL (≈ 1.63 µM)

CC[C@H](C)[C@H](NC(=O)[C@@H](Cc1ccccc1)NC)C(=O)N[C@@H](CO)C(=O)N[C@H](CCC(N)=O)C(=O)N[C@@H](C(=O)N[C@H](C(=O)N[C@@H](C)C(=O)N[C@H]1C(=O)N[C@@H](C)C(=O)N[C@@H](CCCCN)C(=O)N[C@@H]([C@@H](C)CC)C(=O)O[C@H]1C)[C@@H](C)CC)[C@@H](C)CC
MIC [3]: 32 µg/mL (≈ 26.7 µM) | MIC [4]: 32 µg/mL (≈ 26.7 µM)

CC[C@H](C)[C@H](NC(=O)[C@@H](Cc1ccccc1)NC)C(=O)N[C@@H](CO)C(=O)N[C@H](CCC(N)=O)C(=O)N[C@@H](C(=O)N[C@H](C(=O)N[C@@H](CO)C(=O)N[C@H]1C(=O)N[C@@H](C)C(=O)NC(CN)C(=O)N[C@@H]([C@@H](C)CC)C(=O)O[C@H]1C)[C@@H](C)CC)[C@@H](C)CC (stereo partly specified)
MIC [5]: 4 µg/mL (≈ 3.41 µM) | MIC [6]: 0.5 µg/mL (≈ 0.426 µM)

CC[C@H](C)[C@H](NC(=O)[C@@H](Cc1ccccc1)NC)C(=O)N[C@@H](CO)C(=O)N[C@H](C)C(=O)N[C@@H](C(=O)N[C@H](C(=O)N[C@@H](C)C(=O)N[C@H]1C(=O)N[C@@H](C)C(=O)N[C@@H](CCCCN)C(=O)N[C@@H]([C@@H](C)CC)C(=O)O[C@H]1C)[C@@H](C)CC)[C@@H](C)CC
MIC [7]: 4 µg/mL (≈ 3.5 µM) | MIC [8]: 1 µg/mL (≈ 0.875 µM)

CC[C@H](C)[C@H](NC(=O)[C@@H](Cc1ccccc1)NC)C(=O)N[C@@H](CO)C(=O)N[C@H](CCCCN)C(=O)N[C@@H](C(=O)N[C@H](C(=O)N[C@@H](C)C(=O)N[C@H]1C(=O)N[C@@H](C)C(=O)NC(CCCN)C(=O)N[C@@H]([C@@H](C)CC)C(=O)O[C@H]1C)[C@@H](C)CC)[C@@H](C)CC (stereo partly specified)
MIC [7]: 2 µg/mL (≈ 1.69 µM) | MIC [8]: 2 µg/mL (≈ 1.69 µM)

CC[C@H](C)[C@H](NC(=O)[C@@H](Cc1ccccc1)NC)C(=O)N[C@@H](C)C(=O)N[C@H](CCC(N)=O)C(=O)N[C@@H](C(=O)N[C@H](C(=O)N[C@@H](CO)C(=O)N[C@H]1C(=O)N[C@@H](C)C(=O)N[C@@H](CCCCN)C(=O)N[C@@H]([C@@H](C)CC)C(=O)O[C@H]1C)[C@@H](C)CC)[C@@H](C)CC
MIC [3]: 0.5 µg/mL (≈ 0.416 µM) | MIC [4]: 1 µg/mL (≈ 0.833 µM)

CC[C@H](C)[C@H](NC(=O)[C@@H](Cc1ccccc1)NC(=O)c1ccccc1)C(=O)N[C@@H](CO)C(=O)N[C@H](CCC(N)=O)C(=O)N[C@@H](C(=O)N[C@H](C(=O)N[C@@H](CO)C(=O)N[C@H]1C(=O)N[C@@H](C)C(=O)N[C@@H](CCCNC(=N)N)C(=O)N[C@@H]([C@@H](C)CC)C(=O)O[C@H]1C)[C@@H](C)CC)[C@@H](C)CC
MIC [1]: 8 µg/mL (≈ 5.99 µM)

CC[C@H](C)[C@H](NC(=O)[C@@H](Cc1ccccc1)NC)C(=O)N[C@@H](CO)C(=O)N[C@H](CCC(N)=O)C(=O)N[C@@H](C(=O)N[C@H](C(=O)N[C@@H](CO)C(=O)N[C@H]1C(=O)N[C@@H](C)C(=O)N[C@@H](CCCCN)C(=O)N[C@@H]([C@@H](C)CC)C(=O)O[C@H]1C)[C@@H](C)CC)[C@@H](C)CC
MIC [5]: 1 µg/mL (≈ 0.822 µM) | MIC [6]: 0.25 µg/mL (≈ 0.206 µM)

CC[C@H](C)[C@H](NC(=O)[C@@H](Cc1ccccc1)NC)C(=O)N[C@@H](CO)C(=O)N[C@H](CCC(N)=O)C(=O)N[C@@H](C(=O)N[C@H](C(=O)N[C@@H](CO)C(=O)N[C@H]1C(=O)N[C@@H](CCCCN)C(=O)N[C@@H](CCCNC(=N)N)C(=O)N[C@@H]([C@@H](C)CC)C(=O)O[C@H]1C)[C@@H](C)CC)[C@@H](C)CC
MIC [3]: 6 µg/mL (≈ 4.61 µM) | MIC [7]: 1 µg/mL (≈ 0.768 µM)

CC[C@H](C)[C@H](NC(=O)[C@H](Cc1ccccc1)NC)C(=O)N[C@@H](CO)C(=O)N[C@H](CCC(N)=O)C(=O)N[C@@H](C(=O)N[C@H](C(=O)N[C@@H](CO)C(=O)N[C@H]1C(=O)N[C@@H](C)C(=O)N[C@@H](CCCNC(=N)N)C(=O)N[C@@H]([C@@H](C)CC)C(=O)O[C@H]1C)[C@@H](C)CC)[C@@H](C)CC
MIC [1]: 2 µg/mL (≈ 1.61 µM)

CC[C@H](C)[C@H](NC(=O)[C@@H](Cc1ccccc1)NC)C(=O)N[C@@H](CO)C(=O)N[C@H](CCC(N)=O)C(=O)N[C@@H](C(=O)N[C@H](C(=O)N[C@@H](CO)C(=O)N[C@H]1C(=O)N[C@@H](C)C(=O)N[C@@H](CCCN)C(=O)N[C@@H]([C@@H](C)CC)C(=O)O[C@H]1C)[C@@H](C)CC)[C@@H](C)CC
MIC [5]: 2 µg/mL (≈ 1.66 µM) | MIC [6]: 0.25 µg/mL (≈ 0.208 µM)

CC[C@H](C)[C@H](NC(=O)[C@@H](Cc1ccccc1)NC)C(=O)N[C@@H](CO)C(=O)N[C@H](CCC(N)=O)C(=O)N[C@@H](C(=O)N[C@H](C(=O)N[C@@H](CO)C(=O)N[C@H]1C(=O)N[C@@H](C)C(=O)N[C@@H](CCN)C(=O)N[C@@H]([C@@H](C)CC)C(=O)O[C@H]1C)[C@@H](C)CC)[C@@H](C)CC
MIC [5]: 2 µg/mL (≈ 1.68 µM) | MIC [6]: 1 µg/mL (≈ 0.841 µM)

CC[C@H](C)[C@H](NC(=O)[C@@H](Cc1ccccc1)NC)C(=O)N[C@@H](CO)C(=O)N[C@H](CCC(N)=O)C(=O)N[C@@H](C(=O)N[C@H](C(=O)N[C@@H](CO)C(=O)N[C@H]1C(=O)N[C@@H](C)C(=O)N[C@@H](CCCCN)C(=O)N[C@@H](C)C(=O)O[C@H]1C)[C@@H](C)CC)[C@@H](C)CC (H-[dNMeF]IS[dQ][d(aIle)]IS[dT]AKA; ester 8-C)
MIC [7]: 8 µg/mL (≈ 6.81 µM) | MIC [8]: 4 µg/mL (≈ 3.41 µM)

CC[C@H](C)[C@H](NC(=O)[C@@H](Cc1ccccc1)NC)C(=O)N[C@@H](CO)C(=O)N[C@H](CCC(N)=O)C(=O)N[C@@H](C(=O)N[C@H](C(=O)N[C@@H](CO)C(=O)N[C@H]1C(=O)N[C@@H](C)C(=O)N[C@@H](CCNC(=N)N)C(=O)N[C@@H]([C@@H](C)CC)C(=O)O[C@H]1C)[C@@H](C)CC)[C@@H](C)CC
MIC [5]: 1 µg/mL (≈ 0.813 µM) | MIC [6]: 0.5 µg/mL (≈ 0.406 µM)

CC[C@H](C)[C@H](NC(=O)[C@@H](Cc1ccccc1)N(C)C)C(=O)N[C@@H](CO)C(=O)N[C@H](CCC(N)=O)C(=O)N[C@@H](C(=O)N[C@H](C(=O)N[C@@H](CO)C(=O)N[C@H]1C(=O)N[C@@H](C)C(=O)N[C@@H](CCCNC(=N)N)C(=O)N[C@@H]([C@@H](C)CC)C(=O)O[C@H]1C)[C@@H](C)CC)[C@@H](C)CC
MIC [1]: 16 µg/mL (≈ 12.7 µM)

CC[C@H](C)[C@H](NC(=O)[C@@H](Cc1ccccc1)NC)C(=O)N[C@@H](CO)C(=O)N[C@H](CCC(N)=O)C(=O)N[C@@H](C(=O)N[C@H](C(=O)N[C@@H](CO)C(=O)N[C@H]1C(=O)N[C@@H](C)C(=O)N[C@@H](CNC(=N)N)C(=O)N[C@@H]([C@@H](C)CC)C(=O)O[C@H]1C)[C@@H](C)CC)[C@@H](C)CC
MIC [5]: 4 µg/mL (≈ 3.29 µM) | MIC [6]: 1 µg/mL (≈ 0.822 µM)

CC[C@H](C)[C@H](NC(=O)[C@@H](Cc1ccccc1)NC)C(=O)N[C@@H](CO)C(=O)N[C@H](CCC(N)=O)C(=O)N[C@@H](C(=O)N[C@H](C(=O)N[C@@H](CO)C(=O)N[C@H]1C(=O)N[C@@H](C)C(=O)N[C@@H](CCCCNC(=N)N)C(=O)N[C@@H]([C@@H](C)CC)C(=O)O[C@H]1C)[C@@H](C)CC)[C@@H](C)CC
MIC [5]: 1 µg/mL (≈ 0.795 µM) | MIC [6]: 0.125 µg/mL (≈ 0.0993 µM)
